Data: paper PMC8634379, “From the Design to the In Vivo Evaluation of Benzohomoadamantane-Derived Soluble Epoxide Hydrolase Inhibitors for the Treatment of Acute Pancreatitis” (Journal of Medicinal Chemistry, 2021)
Like-named read-outs stand apart in the source and are kept apart here.

Tests used:
[1] = target: T1, murine sEH (Mus musculus, UniProt P34914); assay: sEH inhibition, fluorescent-based assay (CMNPC substrate); format: biochemical; details: purified recombinant enzyme, average of three replicates
T1 sequence (P34914 1-554): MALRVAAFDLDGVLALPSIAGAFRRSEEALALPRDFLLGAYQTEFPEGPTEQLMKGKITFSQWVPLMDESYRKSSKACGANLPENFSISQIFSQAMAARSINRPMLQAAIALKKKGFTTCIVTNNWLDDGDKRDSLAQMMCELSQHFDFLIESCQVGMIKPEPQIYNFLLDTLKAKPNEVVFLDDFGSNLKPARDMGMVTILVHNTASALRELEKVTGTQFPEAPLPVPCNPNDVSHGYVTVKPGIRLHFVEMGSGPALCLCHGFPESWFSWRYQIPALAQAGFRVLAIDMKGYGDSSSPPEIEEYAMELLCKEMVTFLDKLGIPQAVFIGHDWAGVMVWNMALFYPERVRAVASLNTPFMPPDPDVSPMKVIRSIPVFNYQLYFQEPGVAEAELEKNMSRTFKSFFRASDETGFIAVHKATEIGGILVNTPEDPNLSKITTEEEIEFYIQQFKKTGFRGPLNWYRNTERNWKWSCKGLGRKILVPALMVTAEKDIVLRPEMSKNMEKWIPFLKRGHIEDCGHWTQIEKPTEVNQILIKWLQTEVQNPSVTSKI
Procedure: (§1) The IC50 values reported herein were determined using a fluorescent-based assay (CMNPC as substrate).[16] The fluorescent assay was used with purified recombinant human, mouse, or rat sEH proteins. The enzymes were incubated at 30 °C with the inhibitors ([I]final = 0.4–100,000 nM) for 5 min in 100 mM sodium phosphate buffer (200 μL, pH 7.4) containing 0.1 mg/mL of BSA and 1% of DMSO. The substrate (CMNPC) was then added ([S]final = 5 μM). […] Results were obtained by regression analysis from a linear region of the curve.

[2] = target: T2, human sEH (hsEH) (Homo sapiens, UniProt P34913); assay: as above; format: biochemical; details: purified recombinant enzyme, average of three replicates
T2 sequence (P34913 1-555): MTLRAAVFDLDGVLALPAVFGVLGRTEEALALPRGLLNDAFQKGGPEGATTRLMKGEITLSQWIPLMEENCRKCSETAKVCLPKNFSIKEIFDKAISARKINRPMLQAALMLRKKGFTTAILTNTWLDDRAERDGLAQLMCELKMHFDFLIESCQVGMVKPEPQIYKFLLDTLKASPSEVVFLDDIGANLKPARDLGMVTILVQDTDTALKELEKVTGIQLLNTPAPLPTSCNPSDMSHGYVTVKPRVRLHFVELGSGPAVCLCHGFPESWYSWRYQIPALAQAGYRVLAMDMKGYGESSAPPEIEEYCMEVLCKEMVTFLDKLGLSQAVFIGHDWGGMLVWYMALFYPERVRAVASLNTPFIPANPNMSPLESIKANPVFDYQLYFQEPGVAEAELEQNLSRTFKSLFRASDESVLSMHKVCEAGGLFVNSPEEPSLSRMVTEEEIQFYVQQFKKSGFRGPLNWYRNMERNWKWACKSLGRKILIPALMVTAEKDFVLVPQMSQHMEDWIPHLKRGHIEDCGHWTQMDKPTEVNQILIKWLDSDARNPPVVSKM
Procedure: as §1

[3] = target: T3, rat sEH (Rattus norvegicus, UniProt P80299); assay: as above; format: biochemical; details: purified recombinant enzyme, average of three replicates
T3 sequence (P80299 1-554): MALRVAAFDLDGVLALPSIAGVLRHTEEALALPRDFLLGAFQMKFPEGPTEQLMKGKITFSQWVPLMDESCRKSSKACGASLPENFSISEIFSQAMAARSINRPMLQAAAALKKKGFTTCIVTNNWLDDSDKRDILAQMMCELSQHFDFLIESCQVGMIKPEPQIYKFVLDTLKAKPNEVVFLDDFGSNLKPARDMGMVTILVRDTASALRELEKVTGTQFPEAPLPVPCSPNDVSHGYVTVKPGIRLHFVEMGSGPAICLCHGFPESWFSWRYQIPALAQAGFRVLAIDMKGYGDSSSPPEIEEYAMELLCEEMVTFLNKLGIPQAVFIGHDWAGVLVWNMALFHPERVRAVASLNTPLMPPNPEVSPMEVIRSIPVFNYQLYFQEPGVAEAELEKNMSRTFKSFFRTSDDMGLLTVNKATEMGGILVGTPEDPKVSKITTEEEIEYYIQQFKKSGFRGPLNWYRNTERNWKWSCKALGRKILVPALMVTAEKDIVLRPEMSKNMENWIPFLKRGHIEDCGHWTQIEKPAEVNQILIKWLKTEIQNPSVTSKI
Procedure: as §1

[4] = Concentrations in plasma and pancreatic tissue in the efficacy study; format: in vivo, C57BL/6 male mice; details: 10 h post-administration; for concentration at 10 h: male, C57BL/6, mouse, intraperitoneal
Source text: During the experimental procedure, the animals were identified with a permanent marker (tail code numbers). […] They underwent a period of 7 days of acclimatization between the date of arrival and the start of the procedure. […] Diet was provided to the animals ad libitum, but they were fasted overnight before the first cerulein injection, and food was replaced after the last cerulein injection. Tap water was supplied by CASSA (Servei d’Aigües de Sabadell) ad libitum. […] Ministry of agriculture, livestock and fishing of the Autonomous Government of Catalonia, Spain. […] The vehicle was prepared the day before and kept at 4 °C. Pancreatitis induction: Mice (n = 41) were weighed, identified by a distinct number at the base of the tail, and fasted overnight. Cerulein (cerulein and cerulein + 22 groups) (50 μg/kg, prepared in 0.9% NaCl) or vehicle (0.9% NaCl) (control group) were intraperitoneally injected (V = 5 mL/kg) 12 consecutive times, at 1 h intervals (h = 0–11). Food was replaced after the last injection. A satellite experiment was designed where animals (n = 3) were distributed in control, cerulein, and cerulein + 22-treated groups. Pancreatitis was induced by seven injections of cerulein (or vehicle in the control group) at 1 h intervals (h = 0–6). […] Animals from the control and cerulein groups received vehicle administration (10% 2-hydroxypropyl-β-cyclodextrin) (V = 10 mL/kg). Extra groups were treated 2 h after the first cerulein injection: 22 (0.3 mg/kg), control, and cerulein groups (10% 2-hydroxypropyl-β-cyclodextrin). […] Blood was collected from the vena cava in an Eppendorf containing K2-EDTA and centrifuged at 10,000 rpm for 5 min for plasma collection. Plasma was stored at −80 °C until analysis. The mice were sacrificed by cervical dislocation and the pancreases were dissected and weighed. Pancreases from three animals were frozen in liquid N2 and stored at −80 °C until analysis. Pancreases from five mice were sectioned and one part was placed in 10% formalin and sent to Anapath (Granada, Spain) for histology analysis and the other was immediately placed in RNAse-free eppendorfs, frozen in N2, and stored at −80 °C for gene expression assays.

CC12CC3CC(NC(=O)N[C@H]4CC[C@H](Oc5ccc(C(=O)O)cc5)CC4)(CC(C1)c1ccccc13)C2 [Compound 20, 4-[((1r,4r)-4-(3-(9-Methyl-5,6,8,9,10,11-Hexahydro-7H-5,9:7,11-dimethanobenzo[9]annulen-7-yl)ureido)cyclohexyl)oxy]benzoic Acid]
IC50 [1]: 9900 pM | IC50 [2]: 900 pM | IC50 [3]: 400 pM

O=C(NC12CC3CC(Cl)(CC(C1)c1ccccc13)C2)N[C@H]1CC[C@H](Oc2ccc(C(=O)O)cc2)CC1 [Compound 22, 4-[((1r,4r)-4-(3-(9-Chloro-5,6,8,9,10,11-hexahydro-7H-5,9:7,11-dimethanobenzo[9]annulen-7-yl)ureido)cyclohexyl)oxy]benzoic Acid]
concentration in pancreatic tissues ([4]; 0.1 mg/kg IP): no amount of 22 was detected | concentration at 10 h ([4]; pancreas, 0.3 mg/kg IP, read-out: concentration in pancreas): 29.9 ng/g | concentration at 10 h ([4]; plasma, 0.1 mg/kg IP, read-out: plasma level): 14 nM | concentration at 10 h ([4]; plasma, 0.3 mg/kg IP, read-out: plasma level): 175 nM

O=C(NC12CC3CC(F)(CC(C1)c1ccccc13)C2)N[C@H]1CC[C@H](Oc2ccc(C(=O)O)cc2)CC1 [Compound 23, 4-[((1r,4r)-4-(3-(9-Fluoro-5,6,8,9,10,11-hexahydro-7H-5,9:7,11-dimethanobenzo[9]annulen-7-yl)ureido)cyclohexyl)oxy]benzoic Acid]
IC50 [1]: 500 pM | IC50 [2]: 500 pM | IC50 [3]: 400 pM
